Data on one compound can be found in patent publication US20140120063A1, “NUTRITIONAL AND METABOLIC APPROACHES TO PREVENT EMERGENCE OF ENTERIC PATHOGENS” (The Board of Trustees of the Leland Stanford Junior …, priority 2012, published 2014).

The subject of one data set is C. difficile. Nature of the data set: C. difficile density in feces of gnotobiotic mice given exogenous free sialic acid. It counts as in vivo. Here is the method:
(BioTek, Winooski, Vt.) every 30 minutes, at 37° C. anaerobically (6% H2, 20% CO2, 74% N2). Fecal densities (CFU) of C. difficile were quantified by duplicate sampling with 1 μl loops and subsequent dilution and spot plating on blood-BHI supplemented with erythromycin.
Germ-free Swiss-Webster mice were maintained in gnotobiotic isolators and fed an autoclaved standard diet (Purina LabDiet 5K67) or a polysaccharide-deficient diet (Sonnenburg, E. D., et al. Cell, 2010. 141(7): p. 1241-52), in accordance with A-PLAC, the Stanford IACUC. For all experiments involving C. difficile colonization of germ-free mice, the diet was switched to polysaccharide-deficient chow one day before inoculation with C. difficile.
(§1) For sialic acid administration experiments, N-acetylneuraminic acid (Calbiochem or Santa Cruz Biotechnology) was administered in the water at a 1% concentration. Additionally, mice were orally gavaged 1 mg of sialic acid twice a day. The amount of sialic acid in the cecal contents were calculated to equal approximately 700 pmoles/mg of cecal contents, which mirrors the average concentration of free sialic acids we quantified post-antibiotic treatment (725 pmoles/mg).

Data set [1] in a line: Amount of sialic acid in cecal contents after sialic acid administration. It counts as in vivo, mice. The following applies: 1% in water plus 1 mg oral gavage twice a day. Here is the method:
as §1
All steps were carried out at 4° C. to minimize enzymatic hydrolysis. Approximately 200 mg of flash-frozen cecal contents were weighed out and resuspended in 400 μl dH2O, Samples were vortexed for 30 minutes at max speed and centrifuged for 15 minutes at 14,000×g in the tabletop centrifuge.
The supernatant was stored, and the pellet resuspended in an additional 400 μl dH2O. The tubes were vortexed individually until the pellet was dispersed, and then all samples were vortexed for 30 minutes, centrifuged, and supernatants were pooled. This process was repeated once more for a total volume of approximately 1 ml. […] The resulting product was analyzed by reverse-phase HPLC using a C18 column (Dionex) at a flow rate of 0.9 ml/min, using a gradient of 5% to 11% acetonitrile in 7% methanol. […] The DMB-derivatized sialic acids were identified and quantified by comparing elution times and peak areas to known standards.

A further data set has as its system C. difficile nanE. Kind of data set: C. difficile nanE gene expression (qRT-PCR) in feces of mice given exogenous free sialic acid. It is filed as in vivo. The note with it: sialic acid-fed Bt-ΔBT0455-associated mice, 1 day post-infection. Here is the method:
as §1
qRT-PCR analysis was performed on RNA extracted from cecal or fecal contents by phenolchloroform extraction and bead beating. Superscript II (Invitrogen) was utilized to convert RNA to cDNA, and SYBR Green (ABgene) in a MX3000P thermocycler (Strategene) was utilized. Fold changes were normalized to in vitro growths in Minimal Medium containing 0.5% glucose (MM-G) for C. difficile and LB for S. typhimurium.
For orientation: In qPCR the cycle at which signal appears reflects the starting amount.

In data set [2] the test system is S. typhimurium nanA mutant. Nature of the data set: Growth of S. typhimurium nanA mutant in minimal medium in the presence of sialic acid. It counts as cell-based. The following applies: M9 minimal media, 0.25% sialic acid with glucose or glycerol. Here is the method:
FIG. 8. Requirement for S. typhimurium nan and fuc operons for in vitro growth on sialic acid and fucose. A) S. typhimurium SL1344 encodes the genes necessary to catabolize sialic acid and fucose. The nan and fuc operons are pictured in their genomic context. B) Growth of wild-type S. typhimurium and mutant S. typhimurium strains in M9 minimal medium containing 0.5% glucose (M9+glucose), 0.5% sialic acid (M9+sialic acid), or 0.5% fucose (M9+fucose). OD600 measurements were taken every 30 minutes. C, D) ΔNanA E. coli (Keio strain JW3194) and wild-type and ΔNanA S. typhimurium SL1344 strains were grown aerobically in M9 minimal media containing 0.5% total carbohydrate. Cells were grown in (C) 0.5% glucose or 0.25% glucose and 0.25% sialic acid, and (D) 0.5% glycerol (gro) or 0.25% glycerol and 0.25% sialic acid. Optical densities were measured at indicated times.
All strains of S. typhimurium were derived from wild-type strain SL1344, which is naturally streptomycin-resistant. […] Fecal densities (CFU) of S. typhimurium were quantified by duplicate sampling with 1 μl loops, and subsequent dilution and spot plating on plain LB agar for gnotobiotic experiments and LB agar with streptomycin for conventional experiments.

On to `CC(=O)N[C@H]1[C@H]([C@H](O)[C@H](O)CO)OC(O)(C(=O)O)C[C@@H]1O` (some centres unmarked) [sialic acid, N-acetylneuraminic acid], for which the “C. difficile density in the lumen of the gut” value with C. difficile (GF mice infected with C. difficile, free sialic acid administration vs PBS, 1 day post-inoculation) is listed as “higher densities”. Besides, the C. difficile density in the data set on C. difficile (feces, 1 day post-infection, Bt-ΔBT0455 monoassociated mice fed free sialic acid (1% in water plus 1 mg gavage twice a day), unsupplemented controls 6.8×10^7) is reported as 4.8×10^8 CFU/ml. In data set [1], the “amount of sialic acid in the cecal contents” value was “approximately 700 pmoles/mg of cecal contents”. For the same compound, the “C. difficile nanE expression, fold higher over PBS-treated controls” value in the data set on C. difficile nanE was determined as 58 fold. Besides, the “toxicity of sialic acid to the nanA mutant” value in data set [2] is “did not pose a toxicity issue”.
